Reference: the supplement of paper PMC10307832

Legend:
Assay in all cases: relative viability (nuclei count vs DMSO), 5 days (fraction); higher = more cells survive
[1] = system: IA-LM
In short: (§1)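 Lung cancer cell lines, seeded in 1536-well plates, were treated the following day by pin tool with a single drug or with five library-drug doses (not always all listed) in √10 steps on top of a fixed anchor-drug dose. Cells were fixed and nuclei stained in one step after 5 days, and nuclei were counted. Relative viability is the nuclei count for treated wells divided by that for vehicle wells, reported as medians of duplicate plates.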

[2] = system: NCI-H1703
In short: as §1

[3] = system: NCI-H1563
In short: as §1

[4] = system: Calu-6
In short: as §1

[5] = system: NCI-H1299
In short: as §1

[6] = system: EBC-1
In short: as §1

[7] = system: A549
In short: as §1

SMILES | relative viability ([1]; first compound 5 µM) | relative viability ([1]; first compound 15.81 µM) | relative viability ([1]; first compound 50 µM) | relative viability ([1]; first compound 158.11 µM) | relative viability ([1]; first compound 500 µM) | relative viability ([2]; first compound 5 µM) | relative viability ([2]; first compound 15.81 µM) | relative viability ([2]; first compound 50 µM) | relative viability ([2]; first compound 158.11 µM) | relative viability ([2]; first compound 500 µM) | relative viability ([3]; first compound 5 µM) | relative viability ([3]; first compound 15.81 µM) | relative viability ([3]; first compound 50 µM) | relative viability ([3]; first compound 158.11 µM) | relative viability ([3]; first compound 500 µM) | relative viability ([4]; first compound 5 µM) | relative viability ([4]; first compound 15.81 µM) | relative viability ([4]; first compound 50 µM) | relative viability ([4]; first compound 158.11 µM) | relative viability ([4]; first compound 500 µM) | relative viability ([5]; first compound 5 µM) | relative viability ([5]; first compound 15.81 µM) | relative viability ([5]; first compound 50 µM) | relative viability ([5]; first compound 158.11 µM) | relative viability ([5]; first compound 500 µM) | relative viability ([6]; first compound 5 µM) | relative viability ([6]; first compound 15.81 µM) | relative viability ([6]; first compound 50 µM) | relative viability ([6]; first compound 158.11 µM) | relative viability ([6]; first compound 500 µM) | relative viability ([7]; first compound 5 µM) | relative viability ([7]; first compound 15.81 µM) | relative viability ([7]; first compound 50 µM) | relative viability ([7]; first compound 158.11 µM) | relative viability ([7]; first compound 500 µM)
O=C(O)CCCCC(CCSCc1ccccc1)SCc1ccccc1 (stereo not given) [CPI-613] + CC(C)C[C@H](NC(=O)[C@H](Cc1ccccc1)NC(=O)c1cnccn1)B(O)O [Bortezomib] (partner 0.002 µM) | 0.729 | 0.697 | 0.758 | 0.0988 | 0.0045 | 0.29 | 0.375 | 0.316 | 0.174 | 0.102 | 0.956 | 0.859 | 0.848 | 0.508 | 0.208 | 0.945 | 0.887 | 0.879 | 0.241 | 0.0719 | 1.01 | 1.01 | 1.05 | 1.06 | 1.03 | 0.576 | 0.51 | 0.481 | 0.0828 | 0.0663 | – | – | – | – | –
O=C(O)CCCCC(CCSCc1ccccc1)SCc1ccccc1 (stereo not given) [CPI-613] + CS(=O)(=O)CCNCc1ccc(-c2ccc3ncnc(Nc4ccc(OCc5cccc(F)c5)c(Cl)c4)c3c2)o1 [Lapatinib] (partner 2 µM) | 0.694 | 0.802 | 0.665 | 0.269 | 0.208 | 0.943 | 1.11 | 1.1 | 0.452 | 0.274 | 1 | 0.886 | 0.998 | 0.427 | 0.103 | 1.04 | 1.03 | 0.866 | 0.775 | 0.563 | 0.923 | 0.945 | 0.965 | 0.899 | 0.888 | 0.252 | 0.213 | 0.212 | 0.175 | 0.145 | 0.933 | 0.967 | 0.787 | 0.348 | 0.249
O=C(O)CCCCC(CCSCc1ccccc1)SCc1ccccc1 (stereo not given) [CPI-613] + CS(=O)(=O)N1CCN(Cc2cc3nc(-c4cccc5[nH]ncc45)nc(N4CCOCC4)c3s2)CC1 [Pictilisib] (partner 1 µM) | 0.294 | 0.307 | 0.238 | 0.0746 | 0.0098 | 0.25 | 0.264 | 0.27 | 0.213 | 0.115 | 0.657 | 0.597 | 0.623 | 0.513 | 0.193 | 0.938 | 0.811 | 0.754 | 0.446 | 0.111 | 0.789 | 0.756 | 0.785 | 0.404 | 0.106 | 0.391 | 0.37 | 0.362 | 0.206 | 0.0773 | 0.491 | 0.414 | 0.39 | 0.127 | 0.0559
